Several values for one entry are separate records, joined by “and”; a condition that tells them apart may be missing. Identical values can stand only once.
Key:
[1] = Quantitative splicing assay (HTT), qPCR; type: cell-based, human; settings: Homo sapiens, GM04724, 24 h, GM04724 lymphoblasts, qPCR, read-out: HTT Splicing: E49-50 EC50
Method: Example A9: Quantitative Splicing Assay (HTT)
GM04724 (CAG 70/20) Huntington's disease patient lymphoblasts (Coriell) are plated in 96-well v-bottom plates at 50,000 cells/well. Immediately after plating, cells are dosed with compound for 24 h at concentrations ranging from 2.5 uM to 0.15 nM (0.1% DMSO). Treated cells are lysed and cDNA synthesized using the Fast Advanced Cells-to-Ct kit (Thermofisher A35378) according to the manufacturer's instructions. 2 uL of each cDNA are used in qPCR reactions to confirm the compound-induced inclusion of a cryptic exon within intron 49 of the Huntingtin (HTT) transcripts. The qPCR reactions are prepared in 384-well plates in 10 uL volume, using TagMan™ Fast Advanced Master Mix [ThermoFisher, 4444965] with primers and probes shown in the table below. Reactions are run in a Quant studio 6 qPCR instrument with default settings.

MDR1 = test: Blood-brain-barrier (BBB) penetration potential via MDCK-MDR1 permeability assay; settings: dog, MDCK-MDR1, pH 7.4, MDCK-MDR1: Efflux, efflux ratio
[2] = tested on: MDR1-MDCK cell monolayers; test: as above
MDR1 (P-gp) = test: as above; settings: dog; for Papp A→B at 120 min, 5 μM: MDCK-MDR1, pH 7.4, MDCK-MDR1: Papp A-B, A-B direction; for Papp B→A at 120 min, 5 μM: MDCK-MDR1, pH 7.4, MDCK-MDR1: Papp B-A, B-A direction
[3] = tested on: SMN protein in spinal muscular atrophy (SMA) patient fibroblasts (GM03813, Coriell); test: SMN protein assay, Mesoscale Discovery (MSD); type: cell-based, human; settings: SMA patient fibroblasts GM03813, 48 hours, MSD; for EC50: read-out: SMN2 protein EC50
In short: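 SMA patient fibroblasts (GM03813) seeded at 7000 cells/well and exposed to compound at 2.5 μM to 0.6 nM for 48 hours. Lysates assayed for SMN by MSD immunoassay, with absolute SMN amount calculated from a per-plate SMN standard curve (1 μg/ml to 19.5 pg/ml).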

[4] = tested on: mHTT protein in GM04724 (CAG 70/20) Huntington's disease patient lymphoblast cells; test: mHTT protein assay, 2B7-MW1 assay via Mesoscale Discovery (MSD); type: cell-based, human; settings: GM04724 Huntington's disease patient lymphoblasts
In short: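 Patient lymphoblasts treated 48 h with compound from 10 μM to 0.6 nM. mHTT quantified by MSD 2B7-MW1 immunoassay, whose signal depends on polyQ expansion and HTT size. Viability measured on a replicate plate by CellTiter Glo.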

SMILES | EC50 [1] | efflux ratio at 120 min, 5 μM (MDR1) | MDCK-MDR1: % Recov A-B ([2]; A-B direction) | MDCK-MDR1: Papp A-B ([2]; A-B direction) | MDCK-MDR1: % Recov B-A ([2]; B-A direction) | MDCK-MDR1: Papp B-A ([2]; B-A direction) | MDCK-MDR1: Efflux ([2]; efflux ratio) | Papp A→B at 120 min, 5 μM (MDR1 (P-gp)) | Papp B→A at 120 min, 5 μM (MDR1 (P-gp)) | SMN2 protein EC50 [3] | EC50 [3] | EC50 [4]
CN(c1ccc(-c2cc3c(=O)[nH]ccc3s2)nn1)[C@@H]1C[C@H]2CC[C@H](N2)[C@@H]1F [Compound 6A, 2-(6-(((1S,2S,3R,5R)-2-fluoro-8-azabicyclo[3.2.1]octan-3-yl)(methyl)amino)pyridazin-3-yl)thieno[3,2-c]pyridin-4(5H)-one] | 10 to 501 nM | 74 | 90% and 95% | 0.06 10^−6, cm/s | 91% and 82% | 7.34 10^−6, cm/s | 121 | 0.09 ×10⁻⁶ cm/s | 6.69 ×10⁻⁶ cm/s | E (501 ≤ E ≤ 10.000) | 51 to 100 nM | 
CN(c1ccc(-c2cc3ncn(C)c(=O)c3cc2O)nn1)[C@@H]1C[C@H]2CC[C@H](N2)[C@@H]1F [Compound 51A, 7-(6-(((1S,2S,3R,5R)-2-fluoro-8-azabicyclo[3.2.1]octan-3-yl)(methyl)amino)pyridazin-3-yl)-6-hydroxy-3-methylquinazolin-4(3H)-one] | 0.01 to 15 nM | 47 | 94% |  | 86% |  |  | 0.81 ×10⁻⁶ cm/s | 38 ×10⁻⁶ cm/s | E (501 ≤ E ≤ 10.000) |  | 0.01 to 15 nM
CN(c1ccc(-c2cc3ccncc3s2)nn1)[C@H]1C[C@@H]2CC[C@@H](N2)[C@H]1F [Compound 65B, (1R,2R,3S,5S)-2-fluoro-N-methyl-N-(6-(thieno[2,3-c]pyridin-2-yl)pyridazin-3-yl)-8-azabicyclo[3.2.1]octan-3-amine] | 101 to 500 nM | 8 | 84% |  | 87% |  |  | 6.9 ×10⁻⁶ cm/s | 54.6 ×10⁻⁶ cm/s |  | 16 to 50 nM | 51 to 100 nM
CN(c1ccc(-c2cc3ccncc3s2)nn1)[C@@H]1C[C@H]2CC[C@H](N2)[C@@H]1F [Compound 65A, (1S,2S,3R,5R)-2-fluoro-N-methyl-N-(6-(thieno[2,3-c]pyridin-2-yl)pyridazin-3-yl)-8-azabicyclo[3.2.1]octan-3-amine] | 10 to 501 nM | 9 | 94% |  | 93% |  |  | 5.82 ×10⁻⁶ cm/s | 50.5 ×10⁻⁶ cm/s |  | 51 to 100 nM | 101 to 500 nM
CN(c1ccc(-c2ccc(-c3cnn(C(F)F)c3)cc2O)nn1)[C@@H]1C[C@H]2CC[C@H](N2)[C@@H]1F [Compound 20A, 5-(1-(difluoromethyl)-1H-pyrazol-4-yl)-2-(6-(((1S,2S,3R,5R)-2-fluoro-8-azabicyclo[3.2.1]octan-3-yl)(methyl)amino)pyridazin-3-yl)phenol] | 16 to 50 nM | 9 | 47% |  | 71% |  |  | 4.68 ×10⁻⁶ cm/s | 39.9 ×10⁻⁶ cm/s |  | 16 to 50 nM | 16 to 50 nM
CN(c1ccc(-c2ccc(-c3cnn(C(F)F)c3)cc2O)nn1)[C@H]1C[C@@H]2CC[C@@H](N2)[C@H]1F [Compound 20B, 5-(1-(difluoromethyl)-1H-pyrazol-4-yl)-2-(6-(((1R,2R,3S,5S)-2-fluoro-8-azabicyclo[3.2.1]octan-3-yl)(methyl)amino)pyridazin-3-yl)phenol] | 0.01 to 15 nM | 11 | 45% |  | 65% |  |  | 3.59 ×10⁻⁶ cm/s | 39.2 ×10⁻⁶ cm/s | E (501 ≤ E ≤ 10.000) |  | 0.01 to 15 nM
CN(c1ccc(-c2ccc(-n3nccn3)cc2O)nn1)[C@H]1C[C@@H]2CCC[C@@H](N2)[C@H]1F [Compound 5B, 2-(6-(((1R,2R,3S,5S)-2-fluoro-9-azabicyclo[3.3.1]nonan-3-yl)(methyl)amino)pyridazin-3-yl)-5-(2H-1,2,3-triazol-2-yl)phenol] | 0.01 to 15 nM | 2 | 30% |  | 52% |  |  | 5.84 ×10⁻⁶ cm/s | 9.91 ×10⁻⁶ cm/s |  | 101 to 500 nM | 0.01 to 15 nM
CN(c1ccc(-c2ccc(-n3ccnc3)cc2O)nn1)[C@@H]1C[C@H]2CC(F)(F)[C@@H](C1)N2 [Compound 13A, 2-(6-(((1S,3R,5R)-6,6-difluoro-8-azabicyclo[3.2.1]octan-3-yl)(methyl)amino)pyridazin-3-yl)-5-(1H-imidazol-1-yl)phenol] | 0.01 to 15 nM | 6 | 92% |  | 86% |  |  | 8.7 ×10⁻⁶ cm/s | 50.5 ×10⁻⁶ cm/s |  | 0.01 to 15 nM | 16 to 50 nM
CN(c1ccc(-c2ccc(-c3cnn(C)c3)cc2O)nn1)[C@@H]1C[C@H]2CC(F)(F)[C@@H](C1)N2 [Compound 3A, 2-(6-(((1S,3R,5R)-6,6-difluoro-8-azabicyclo[3.2.1]octan-3-yl)(methyl)amino)pyridazin-3-yl)-5-(1-methyl-1H-pyrazol-4-yl)phenol] | 0.01 to 15 nM | 2 | 75% |  | 81% |  |  | 19.3 ×10⁻⁶ cm/s | 33.8 ×10⁻⁶ cm/s |  | 16 to 50 nM | 16 to 50 nM
CN(c1ccc(-c2cc(C#N)c(F)cc2O)nn1)[C@H]1C[C@@H]2CC[C@@H](N2)[C@H]1F [Compound 72B, 2-fluoro-5-(6-(((1R,2R,3S,5S)-2-fluoro-8-azabicyclo[3.2.1]octan-3-yl)(methyl)amino)pyridazin-3-yl)-4-hydroxybenzonitrile] | 101 to 500 nM | 3 | 78% |  | 74% |  |  | 10.9 ×10⁻⁶ cm/s | 36.4 ×10⁻⁶ cm/s |  | 51 to 100 nM | 101 to 500 nM
CN(c1ccc(-c2ccc(-c3nnco3)cc2O)nn1)[C@@H]1C[C@H]2CC[C@H](N2)[C@@H]1F [Compound 44A, 2-(6-(((1S,2S,3R,5R)-2-fluoro-8-azabicyclo[3.2.1]octan-3-yl)(methyl)amino)pyridazin-3-yl)-5-(1,3,4-oxadiazol-2-yl)phenol] | 16 to 50 nM | 6 | 87% |  | 86% |  |  | 8.12 ×10⁻⁶ cm/s | 50.9 ×10⁻⁶ cm/s |  | 101 to 500 nM | 0.01 to 15 nM
Cc1cnc(-c2ccc(-c3ccc(N(C)C4CC5CCC(N5)C4F)nn3)c(O)c2)o1 (single isomer, unassigned) [Compound 48B] | 16 to 50 nM | 4 | 67% |  | 84% |  |  | 6.56 ×10⁻⁶ cm/s | 24.5 ×10⁻⁶ cm/s |  | 0.01 to 15 nM | 16 to 50 nM
CN(c1ccc(-c2ccc(-c3cnn(C)c3)cc2O)nn1)C1CC2COCC(N2)C1F (single isomer, unassigned) [Compound 80A] | 51 to 100 nM | 11 | 68% |  | 88% |  |  | 4.93 ×10⁻⁶ cm/s | 53.6 ×10⁻⁶ cm/s |  | 101 to 500 nM | 51 to 100 nM
